From US8106055B2, “Substituted amide compounds” (Gruenenthal GmbH, priority 2007, dated 2012)

Tests used:
[1] = biological target: T1, bradykinin 1 receptor (B1R) of the rat (Rattus norvegicus, UniProt P97583); experiment: Functional investigation on the rat bradykinin 1 receptor (B1R), Ca2+ FLIPR assay in CHO K1 rB1R cells; type: cell-based; conditions: test substance 10 μM, Ca2+ FLIPR, CHO K1 rB1R cells; for B1R Ant. r [10 μM] % Inhibition: B1R antagonism rat; for inhibition at 10 µM: CHO-K1, B1R antagonism rat, read-out: B1R Ant. r [10 μM] % Inhibition
T1 construct: expressed in transfected cells; host or cells: CHO K1 cells
T1 sequence (P97583 1-337): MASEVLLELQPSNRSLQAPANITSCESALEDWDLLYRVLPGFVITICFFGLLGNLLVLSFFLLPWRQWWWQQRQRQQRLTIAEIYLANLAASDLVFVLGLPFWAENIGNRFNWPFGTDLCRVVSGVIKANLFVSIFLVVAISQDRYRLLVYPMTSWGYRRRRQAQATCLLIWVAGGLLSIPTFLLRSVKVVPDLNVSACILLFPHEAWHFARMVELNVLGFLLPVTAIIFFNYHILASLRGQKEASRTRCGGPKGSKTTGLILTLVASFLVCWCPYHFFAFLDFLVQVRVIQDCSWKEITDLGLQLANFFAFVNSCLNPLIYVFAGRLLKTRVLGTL
Method in brief: (§1)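 Peak Ca2+-dependent fluorescence in B1R-transfected CHO K1 cells measures antagonism of an EC80 agonist challenge given 10-20 min after compound. Agonist is Lys-Des-Arg9-bradykinin for human, Des-Arg9-bradykinin for rat receptor.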

[2] = biological target: T2, human bradykinin 1 receptor (B1R) (Homo sapiens, UniProt P46663); experiment: Functional investigation on the human bradykinin 1 receptor (B1R), Ca2+ FLIPR assay in CHO K1 hB1R cells; type: cell-based; conditions: test substance 10 μM, Ca2+ FLIPR, CHO K1 hB1R cells; for B1R Ant. h [10 μM] % Inhibition: B1R antagonism human; for inhibition at 10 µM: CHO-K1, B1R antagonism human, read-out: B1R Ant. h [10 μM] % Inhibition
T2 construct: expressed in transfected cells; host or cells: CHO K1 cells
T2 sequence (P46663 1-353): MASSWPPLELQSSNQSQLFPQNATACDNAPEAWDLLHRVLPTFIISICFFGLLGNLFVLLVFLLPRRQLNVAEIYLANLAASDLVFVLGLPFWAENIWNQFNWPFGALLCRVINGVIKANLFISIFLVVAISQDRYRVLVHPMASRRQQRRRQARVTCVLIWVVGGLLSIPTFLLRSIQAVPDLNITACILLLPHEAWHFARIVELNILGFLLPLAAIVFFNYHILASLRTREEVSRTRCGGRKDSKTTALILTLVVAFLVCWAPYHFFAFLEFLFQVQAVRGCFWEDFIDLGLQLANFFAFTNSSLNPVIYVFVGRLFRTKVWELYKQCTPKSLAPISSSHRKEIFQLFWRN
Method in brief: as §1

Structure (SMILES)	B1R Ant. r [10 μM] % Inhibition [1]	B1R Ant. h [10 μM] % Inhibition [2]	inhibition at 10 µM [1]	inhibition at 10 µM [2]
CN(C)C(c1cccc(F)c1)C1CCC(CCNC(=O)COCC2CCCN2S(=O)(=O)c2ccc(Cl)c(Cl)c2)CC1 (stereo not drawn) [Example 202]	−15%	48%	–	–
CN(C)C(c1ccccc1)C1CCC(NC(=O)COCCN(C)S(=O)(=O)c2c(Cl)cc(Cl)cc2Cl)C1 (stereo not drawn) [Example 615, N-[3-(dimethylaminophenylmethyl)-cyclopentyl]-2-{2-[(2,4,6-trichlorobenzenesulfonyl)-methylamino]-ethoxy}-acetamide]	–	–	26%	95%
COc1ccc(S(=O)(=O)N2CCC(OCC(=O)NCC3CCC(C(c4ccc(Cl)cc4)N(C)C)CC3)C2)cc1OC (stereo not drawn) [Example 260]	9%	−7%	–	–
CN(C)C(c1cccc(F)c1)C1CCC(NC(=O)COC2CCN(S(=O)(=O)c3ccccc3)C2)CC1 (stereo not drawn) [Example 271]	−13%	−7%	–	–
CCN(CCOCC(=O)NCC1CCC(C(c2ccccc2)N(C)C)CC1)S(=O)(=O)c1c(C)cc(OC)c(C)c1C (stereo not drawn) [Example 231]	29%	9%	–	–
COc1cc(C)c(S(=O)(=O)N(C)CCOCC(=O)NCC2CCC(C(c3cccc(F)c3)N(C)C)CC2)c(C)c1 (stereo not drawn) [Example 248]	102%	104%	–	–
COc1cc(C)c(S(=O)(=O)N2CCC(OCC(=O)NC3CCC(C(c4cccc(F)c4)N(C)C)CC3)C2)c(C)c1 (stereo not drawn) [Example 251]	87%	81%	–	–
COc1ccc(S(=O)(=O)N2CCC(OCC(=O)NCCC3CCC(C(c4cccc(F)c4)N(C)C)CC3)C2)cc1OC (stereo not drawn) [Example 262]	36%	−6%	–	–
CN(C)C(c1ccc(F)cc1)C1CCC(NC(=O)COC2CCCCC2N(C)S(=O)(=O)c2ccc(Cl)c(Cl)c2)CC1 (stereo not drawn) [Example 256]	1%	52%	–	–
CN(C)C(c1cccc(F)c1)C1CCC(NC(=O)COC2CCCN(S(=O)(=O)c3ccccc3)C2)CC1 (stereo not drawn) [Example 277]	4%	4%	–	–
CN(C)C(c1ccc(Cl)cc1)C1CCC(CCNC(=O)COCCN(C)S(=O)(=O)c2c(Cl)cccc2Cl)CC1 (stereo not drawn) [Example 274]	61%	100%	–	–
CN(C)C(c1ccccc1)C1CCC(NC(=O)COCC2CCCN2S(=O)(=O)c2c(Cl)cc(Cl)cc2Cl)CC1 (stereo not drawn) [Example 612, N-[4-(Dimethylaminophenylmethyl)-cyclohexyl]-2-[1-(2,4,6-trichlorobenzenesulfonyl)-pyrrolidin-2-ylmethoxy]-acetamide]	64%	103%	–	–
COc1ccc(S(=O)(=O)N2CCCCC2COCC(=O)NC2CCC(C(c3cccs3)N(C)C)CC2)cc1OC (stereo not drawn) [Example 261]	−3%	−28%	–	–
COc1cc(C)c(S(=O)(=O)N(C)CCOCC(=O)NC2CCC(C(c3ccccc3)N(C)C)CC2)c(C)c1 (stereo not drawn) [Example 239]	97%	104%	–	–
CN(C)C(c1cccc(F)c1)C1CCC(NC(=O)COCCN(C)S(=O)(=O)c2ccc(OC(F)(F)F)cc2)CC1 (stereo not drawn) [Example 246]	15%	10%	–	–
CN(C)C(c1cccs1)C1CCC(CCNC(=O)COC2CCN(S(=O)(=O)c3ccccc3)CC2)CC1 (stereo not drawn) [Example 230]	−1%	−16%	–	–
Cc1ccc(S(=O)(=O)N(C)CCOCC(=O)NC2CCC(C(c3cccs3)N(C)C)CC2)cc1 (stereo not drawn) [Example 168, N-(4-((dimethylamino) (thiophen-2-yl)methyl)cyclohexyl)-2-(2-(N,4-dimethylphenylsulfamido)ethoxy)acetamide]	16%	−5%	–	–

Structure (SMILES)	B1R Ant. r [10 μM] % Inhibition [1]	B1R Ant. h [10 μM] % Inhibition [2]	inhibition at 10 µM [1]	inhibition at 10 µM [2]
CN(C)C(c1cccc(F)c1)C1CCC(CNC(=O)COC2CCN(S(=O)(=O)c3ccc(Cl)cc3Cl)C2)CC1 (stereo not drawn) [Example 225]	17%	51%	–	–
Cc1cc(C)c(S(=O)(=O)N2CCC(OCC(=O)NCCC3CCC(C(c4cccc(F)c4)N(C)C)CC3)C2)c(C)c1 (stereo not drawn) [Example 264]	59%	77%	–	–
CN(C)C(c1ccccc1)C1CCC(NC(=O)COC2CCCN(S(=O)(=O)c3c(Cl)cc(Cl)cc3Cl)C2)CC1 (stereo not drawn) [Example 608, N-[4-(dimethylaminophenylmethyl)-cyclohexyl]-2-[1-(2,4,6-trichlorobenzenesulfonyl)-piperidin-3-yloxy]-acetamide]	–	–	34%	78%
CN(C)C(c1cccc(F)c1)C1CCC(CNC(=O)COCCN(C)S(=O)(=O)c2ccc(F)cc2)CC1 (stereo not drawn) [Example 229]	8%	7%	–	–
COc1ccc(S(=O)(=O)N(C)CCOCC(=O)NC2CCC(C(c3cccc(F)c3)N(C)C)CC2)cc1 (stereo not drawn) [Example 250]	38%	12%	–	–
CN(C)C(c1ccc(Cl)cc1)C1CCC(CNC(=O)COC2CCCCC2N(C)S(=O)(=O)c2ccc(Cl)c(Cl)c2)CC1 (stereo not drawn) [Example 269]	−3%	7%	–	–
Cc1ccc(S(=O)(=O)N(C)CCOCC(=O)NCCC2CCC(C(c3cccc(F)c3)N(C)C)CC2)cc1 (stereo not drawn) [Example 240]	−14%	2%	–	–
CN(C)C(c1ccc(Cl)cc1)C1CCC(CNC(=O)COCCN(C)S(=O)(=O)c2ccc(F)cc2)CC1 (stereo not drawn) [Example 263]	32%	18%	–	–
CN(C)C(c1cccc(F)c1)C1CCC(NC(=O)COCCN(C)S(=O)(=O)c2ccc(F)cc2)CC1 (stereo not drawn) [Example 205]	5%	−11%	–	–
CN(C)C(c1cccc(F)c1)C1CCC(CNC(=O)COCC2CCCN(S(=O)(=O)c3ccccc3)C2)CC1 (stereo not drawn) [Example 220]	7%	6%	–	–
COc1cc(C)c(S(=O)(=O)N2CCC(OCC(=O)NCCC3CCC(C(c4cccc(F)c4)N(C)C)CC3)C2)c(C)c1C (stereo not drawn) [Example 253]	18%	47%	–	–
CN(C)C(c1ccccc1)C1CCC(NC(=O)COCC2CCCN2S(=O)(=O)c2c(Cl)cc(Cl)cc2Cl)CC1 (stereo not drawn) [Example 611, N-[4-(Dimethylaminophenylmethyl)-cyclohexyl]-2-[1-(2,4,6-trichlorobenzenesulfonyl)-pyrrolidin-2-ylmethoxy]-acetamide]	68%	97%	–	–
CN(C)C(c1cccc(F)c1)C1CCC(CCNC(=O)COC2CCN(S(=O)(=O)c3ccc(Cl)cc3Cl)C2)CC1 (stereo not drawn) [Example 259]	25%	72%	–	–
COc1ccc(S(=O)(=O)N2CCCCC2CCOCC(=O)NC2CCC(C(c3ccc(F)cc3)N(C)C)CC2)cc1 (stereo not drawn) [Example 212]	41%	49%	–	–
CN(C)C(c1cccc(F)c1)C1CCC(NC(=O)COCC2CCCN2S(=O)(=O)c2ccc(Cl)c(Cl)c2)CC1 (stereo not drawn) [Example 211]	10%	33%	–	–
CN(C)C(c1cccc(F)c1)C1CCC(NC(=O)COCCN(C)S(=O)(=O)c2c(Cl)cc(Cl)cc2Cl)CC1 (stereo not drawn) [Example 208]	25%	89%	–	–
